Literature values as cited in US6387352B1, “Mouthwash compositions” (Erling Johansen, priority 1996, dated 2002).

Conditions: compared to similar solutions excluding fluoride

In the case of `F` [fluoride], the “increase in hardness of dental enamel on addition of fluoride to calcium/phosphate solution” value is given as “(about) four times increase in hardness”.
